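48-hour exposure; five concentrations; linearly interpolated endpoints. At the GI50, growth is halved. TGI: concentration producing complete growth inhibition.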
How the values were obtained:
Test in all cases: DTP human tumour cell line panel, 48 h; in the data active means GI50 below about 0.43 µM; inactive means the rest
MDA-MB-231 breast = test system: MDA-MB-231 breast
DU-145 prostate = test system: DU-145 prostate
TK-10 renal = test system: TK-10 renal
HOP-92 NSCLC = test system: HOP-92 NSCLC
SN12C renal = test system: SN12C renal
OVCAR-8 ovarian = test system: OVCAR-8 ovarian
HCT-15 colon = test system: HCT-15 colon
CCRF-CEM leukemia = test system: CCRF-CEM leukemia
CAKI-1 renal = test system: CAKI-1 renal
UO-31 renal = test system: UO-31 renal
SF-539 CNS = test system: SF-539 CNS
UACC-257 melanoma = test system: UACC-257 melanoma
COLO 205 colon = test system: COLO 205 colon
SK-MEL-28 melanoma = test system: SK-MEL-28 melanoma
NCI-H522 lung = test system: NCI-H522 lung
MCF7 breast = test system: MCF7 breast
RPMI-8226 leukemia = test system: RPMI-8226 leukemia
SF-268 CNS = test system: SF-268 CNS
MALME-3M melanoma = test system: MALME-3M melanoma
HL-60(TB) leukemia = test system: HL-60(TB) leukemia
MOLT-4 leukemia = test system: MOLT-4 leukemia
U251 CNS = test system: U251 CNS
HOP-62 NSCLC = test system: HOP-62 NSCLC
HCT-116 colon = test system: HCT-116 colon
SNB-75 CNS = test system: SNB-75 CNS
NCI-H460 lung = test system: NCI-H460 lung
SNB-19 CNS = test system: SNB-19 CNS
SR leukemia = test system: SR leukemia
BT-549 breast = test system: BT-549 breast
NCI-H226 lung = test system: NCI-H226 lung
HT29 colon = test system: HT29 colon
IGROV1 ovarian = test system: IGROV1 ovarian
786-0 renal = test system: 786-0 renal
M14 melanoma = test system: M14 melanoma
HCC-2998 colon = test system: HCC-2998 colon
SK-MEL-2 melanoma = test system: SK-MEL-2 melanoma
OVCAR-3 ovarian = test system: OVCAR-3 ovarian
T-47D breast = test system: T-47D breast
K-562 leukemia = test system: K-562 leukemia
SK-MEL-5 melanoma = test system: SK-MEL-5 melanoma
NCI/ADR-RES ovarian = test system: NCI/ADR-RES ovarian
ACHN renal = test system: ACHN renal
OVCAR-5 ovarian = test system: OVCAR-5 ovarian
SK-OV-3 ovarian = test system: SK-OV-3 ovarian
RXF 393 renal = test system: RXF 393 renal
SW-620 colon = test system: SW-620 colon
MDA-MB-435 = test system: MDA-MB-435
A498 renal = test system: A498 renal
A549 NSCLC = test system: A549 NSCLC
KM12 colon = test system: KM12 colon
SF-295 CNS = test system: SF-295 CNS
OVCAR-4 ovarian = test system: OVCAR-4 ovarian
LOX IMVI melanoma = test system: LOX IMVI melanoma
HS 578T breast = test system: HS 578T breast

Nc1c(C(=O)Nc2cccc(Cl)c2Cl)sc2nc3c(cc12)C(=O)CCC3
> 100 µM: TGI (MDA-MB-231 breast) | TGI (DU-145 prostate) | TGI (TK-10 renal) | TGI (HOP-92 NSCLC) | TGI (SN12C renal) | TGI (OVCAR-8 ovarian) | TGI (HCT-15 colon) | TGI (CCRF-CEM leukemia) | TGI (CAKI-1 renal) | TGI (UO-31 renal) | TGI (SF-539 CNS) | TGI (UACC-257 melanoma) | TGI (COLO 205 colon) | TGI (SK-MEL-28 melanoma) | TGI (NCI-H522 lung) | TGI (MCF7 breast) | TGI (RPMI-8226 leukemia) | TGI (SF-268 CNS) | TGI (MALME-3M melanoma) | TGI (HL-60(TB) leukemia) | TGI (MOLT-4 leukemia) | TGI (U251 CNS) | TGI (HOP-62 NSCLC) | TGI (HCT-116 colon) | TGI (SNB-75 CNS) | TGI (NCI-H460 lung) | TGI (SNB-19 CNS) | TGI (SR leukemia) | TGI (BT-549 breast) | TGI (NCI-H226 lung) | TGI (HT29 colon) | TGI (IGROV1 ovarian) | TGI (786-0 renal) | TGI (M14 melanoma) | TGI (HCC-2998 colon) | TGI (SK-MEL-2 melanoma) | TGI (OVCAR-3 ovarian) | TGI (T-47D breast) | TGI (K-562 leukemia) | TGI (SK-MEL-5 melanoma) | TGI (NCI/ADR-RES ovarian) | TGI (ACHN renal) | TGI (OVCAR-5 ovarian) | TGI (SK-OV-3 ovarian) | TGI (RXF 393 renal) | TGI (SW-620 colon) | TGI (MDA-MB-435) | TGI (A549 NSCLC) | TGI (KM12 colon) | TGI (SF-295 CNS) | TGI (OVCAR-4 ovarian) | TGI (LOX IMVI melanoma) | TGI (HS 578T breast)
active: GI50 (MDA-MB-435) 0.277 µM | GI50 (A498 renal) 0.399 µM
9.33 µM: TGI (A498 renal)
inactive: GI50 (MDA-MB-231 breast) > 100 µM | GI50 (DU-145 prostate) > 100 µM | GI50 (TK-10 renal) > 100 µM | GI50 (HOP-92 NSCLC) > 100 µM | GI50 (SN12C renal) > 100 µM | GI50 (OVCAR-8 ovarian) > 100 µM | GI50 (HCT-15 colon) > 100 µM | GI50 (CCRF-CEM leukemia) > 100 µM | GI50 (CAKI-1 renal) > 100 µM | GI50 (UO-31 renal) > 100 µM | GI50 (SF-539 CNS) > 100 µM | GI50 (UACC-257 melanoma) > 100 µM | GI50 (COLO 205 colon) 1.61 µM | GI50 (SK-MEL-28 melanoma) > 100 µM | GI50 (NCI-H522 lung) > 100 µM | GI50 (MCF7 breast) > 100 µM | GI50 (RPMI-8226 leukemia) > 100 µM | GI50 (SF-268 CNS) > 100 µM | GI50 (MALME-3M melanoma) > 100 µM | GI50 (HL-60(TB) leukemia) > 100 µM | GI50 (MOLT-4 leukemia) > 100 µM | GI50 (U251 CNS) > 100 µM | GI50 (HOP-62 NSCLC) > 100 µM | GI50 (HCT-116 colon) > 100 µM | GI50 (SNB-75 CNS) > 100 µM | GI50 (NCI-H460 lung) 0.601 µM | GI50 (SNB-19 CNS) 4.64 µM | GI50 (SR leukemia) > 100 µM | GI50 (BT-549 breast) > 100 µM | GI50 (NCI-H226 lung) > 100 µM | GI50 (HT29 colon) > 100 µM | GI50 (IGROV1 ovarian) > 100 µM | GI50 (786-0 renal) > 100 µM | GI50 (M14 melanoma) > 100 µM | GI50 (HCC-2998 colon) > 100 µM | GI50 (OVCAR-3 ovarian) > 100 µM | GI50 (T-47D breast) > 100 µM | GI50 (K-562 leukemia) 0.958 µM | GI50 (SK-MEL-5 melanoma) 3.54 µM | GI50 (NCI/ADR-RES ovarian) > 100 µM | GI50 (ACHN renal) > 100 µM | GI50 (OVCAR-5 ovarian) > 100 µM | GI50 (SK-OV-3 ovarian) 3.8 µM | GI50 (RXF 393 renal) > 100 µM | GI50 (SW-620 colon) 61.2 µM | GI50 (A549 NSCLC) 0.866 µM | GI50 (KM12 colon) > 100 µM | GI50 (SF-295 CNS) 0.476 µM | GI50 (OVCAR-4 ovarian) > 100 µM | GI50 (LOX IMVI melanoma) > 100 µM | GI50 (HS 578T breast) > 100 µM

Source: PubChem BioAssay (NCI)
